These results are taken from PMC12736194, “1-Azinyl-1′-Alkenylferrocenes with Anticholinesterase, Antioxidant, and Antiaggregating Activities as Multifunctional Agents for Potential Treatment of Alzheimer’s Disease” (Pharmaceuticals, 2025).

By IC50 is commonly meant the point on the concentration scale where inhibition reaches its midpoint. High values mean weaker potency, low ones greater potency. A word on the Ki: it is the equilibrium dissociation constant of an inhibitor or competing ligand from its target.

Data set [1] concerns the target T1, human (Homo sapiens) erythrocyte AChE (HsAChE) (Homo sapiens, UniProt P22303).
T1 construct: human (Homo sapiens) erythrocyte AChE (HsAChE); purchased Sigma-Aldrich; host or cells: human erythrocytes
Description: Inhibition of HsAChE (spectrophotometric, ATCh iodide substrate). It is filed as biochemical. The following applies: K/Na-phosphate buffer pH 7.5, 25 °C; mean ± SEM, n = 3. As to the method:
(§1) In these experiments, human (Homo sapiens) erythrocyte AChE (HsAChE), equine (Equus caballus) serum BChE (EcBChE), and porcine (Sus scrofa) liver CES (SsCES) were used because of their ready availability, relatively low cost, and high sequence homology of EcBChE and SsCES to the corresponding human enzymes.
(§2) Enzymes, substrates, and reference compounds were sourced from Sigma-Aldrich (St. Louis, MO, USA). Enzyme activity was measured spectrophotometrically according to [91] using ATCh iodide, BTCh iodide, and 4-NPA as substrates for HsAChE, EcBChE, and SsCES, respectively. Experimental conditions included a K/Na-phosphate buffer (100 mM), at 25 °C, with pH 7.5 for AChE and BChE assays, and pH 8.0 for CES assays. Measurements were conducted on a BioRad Benchmark Plus microplate spectrophotometer (Hercules, CA, USA). Test compounds were dissolved in DMSO with a final solvent concentration of 2% (v/v) in the incubation mixture.

For data set [2], the target named is T2, equine (Equus caballus) serum BChE (EcBChE) (Equus caballus, UniProt P81908).
T2 construct: equine (Equus caballus) serum BChE (EcBChE); purchased Sigma-Aldrich; host or cells: horse serum
T2 sequence (P81908 whole entry): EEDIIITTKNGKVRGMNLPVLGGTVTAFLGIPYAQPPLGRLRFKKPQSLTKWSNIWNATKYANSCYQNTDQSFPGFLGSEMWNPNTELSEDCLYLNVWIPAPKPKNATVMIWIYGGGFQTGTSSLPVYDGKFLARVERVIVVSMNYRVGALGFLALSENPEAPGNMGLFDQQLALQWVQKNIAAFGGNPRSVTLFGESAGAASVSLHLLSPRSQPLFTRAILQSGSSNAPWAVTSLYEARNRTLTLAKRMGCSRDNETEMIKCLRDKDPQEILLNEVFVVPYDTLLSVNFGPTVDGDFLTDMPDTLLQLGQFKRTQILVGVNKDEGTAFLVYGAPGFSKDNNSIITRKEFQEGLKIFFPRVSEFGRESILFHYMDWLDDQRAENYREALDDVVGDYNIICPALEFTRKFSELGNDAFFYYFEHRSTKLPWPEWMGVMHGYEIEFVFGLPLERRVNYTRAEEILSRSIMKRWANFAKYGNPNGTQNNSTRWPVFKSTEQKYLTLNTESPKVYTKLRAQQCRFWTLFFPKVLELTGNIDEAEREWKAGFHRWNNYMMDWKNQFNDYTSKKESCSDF
Description: Inhibition of EcBChE (spectrophotometric, BTCh iodide substrate). Format: biochemical. The following applies: K/Na-phosphate buffer pH 7.5, 25 °C; mean ± SEM, n = 3. The method, then: as §1, §2

Data set [3] concerns porcine (Sus scrofa) liver CES (SsCES). Description: Inhibition of SsCES (spectrophotometric, 4-NPA substrate). Particulars: compound 20 μM; n.a. = not active; mean ± SEM, n = 3. It is filed as biochemical.
Description: as §1
Although the dominant carboxylesterase in porcine liver is CES1 [64], the preparation sourced from Sigma-Aldrich is not a purified or recombinant CES1. Therefore, we have designated the preparation used in our experimental studies as SsCES. However, in computational molecular docking studies, it is necessary to choose a single defined protein as the docking target. Thus, the logical choice for our computational studies of CES was the most abundant and best characterized isoform found in porcine liver, which is SsCES1.
as §2

Another data set addresses T3, HsAChE (Homo sapiens, UniProt P22303).
T3 construct: human (Homo sapiens) erythrocyte AChE (HsAChE); purchased Sigma-Aldrich; host or cells: human erythrocytes
Kind of data set: Kinetic study of HsAChE inhibition (Lineweaver-Burk). It is filed as biochemical. The method, then: (§3) . To determine the relationship between enzyme activity and inhibitor concentration at different substrate levels, we conducted kinetic assays. The kinetic data analysis, using Lineweaver–Burk plots, is shown in Figure 2A and Figure 2B for HsAChE and EcBChE, respectively.
(§4) To investigate the mechanisms of HsAChE and EcBChE inhibition, enzyme kinetics were analyzed (detailed in [92]). After a 5 min equilibration at 25 °C with three different inhibitor concentrations and six substrate concentrations, residual enzyme activity was measured as described. Lineweaver–Burk plots (1/V vs. 1/[S]) were used to determine competitive (Ki) and non-competitive (αKi) inhibition constants.

The next data set has as its target T4, EcBChE (Equus caballus, UniProt P81908).
T4 construct: equine (Equus caballus) serum BChE (EcBChE); purchased Sigma-Aldrich; host or cells: horse serum
Description: Kinetic study of EcBChE inhibition (Lineweaver-Burk). It is filed as biochemical. The method, then:
as §3, §4

Data set [4] addresses T5, peripheral anionic site (PAS) of Electrophorus electricus AChE (EeAChE) (Electrophorus electricus, UniProt O42275).
T5 construct: purchased Sigma-Aldrich type VI-S
Kind of data set: Propidium displacement from the EeAChE PAS (fluorescence). It is filed as binding. Particulars: compound concentration 20 µM; EeAChE 7 μM, propidium iodide 8 μM, Tris-HCl pH 8.0; n.a. = not active. The method, then:
A fluorescence-based assay assessed the ability of test compounds to competitively displace propidium iodide from AChE’s PAS [65, 93]. […] EeAChE (7 μM) was incubated with 20 μM test compounds in Tris-HCl buffer (pH 8.0) for 15 min, followed by addition of propidium iodide (8 μM) as described in detail in [95]. Fluorescence readings (530 nm excitation, 600 nm emission) were obtained using a FLUOStar Optima microplate reader (LabTech, Ortenberg, Germany). Displacement (%) was calculated.

The target in data set [5] is T6, human β-amyloid (1–42) (HsAβ42) (Homo sapiens, UniProt P05067).
T6 construct: purchased AnaSpec Inc
T6 sequence (P05067 672-713 limits assumed): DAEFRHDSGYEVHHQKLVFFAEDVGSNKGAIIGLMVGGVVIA
Description: Inhibition of HsAβ42 self-aggregation (thioflavin T fluorescence). The following applies: HsAβ42 50 µM, compound 100 µM, 24 h, 37 °C; n.a. = not active. It is filed as biochemical. As to the method: The potential of compounds from all three groups (1a-e, 5a-e, 7a-d) to inhibit HsAβ42 self-aggregation was evaluated using a Thioflavin T (ThT) fluorescence assay.
Inhibition of HsAβ42 self-aggregation by test compounds was studied using the thioflavin T (ThT) fluorescence method with minor modifications as described in detail in [79]. Lyophilized HFIP-pretreated HsAβ42 (AnaSpec Inc., Fremont, CA, USA, 0.5 mg) was dissolved in DMSO to obtain a stable 500 μM solution. The samples of 50 μM HsAβ42 in 215 mM Na-phosphate buffer pH 8.0 were incubated for 24 h at 37 °C in the absence or presence of 100 μM test compounds. Myricetin in the same concentration was used as a reference. After incubation, 5 μM ThT in 50 mM glycine-NaOH buffer pH 8.5 was added, and the fluorescence was measured at 440 nm (exc.) and 485 nm (emis.) with a FLUOStar Optima microplate reader. Blanks consisted of 215 mM Na-phosphate buffer, pH 8.0, 20% (v/v) DMSO or test compounds, respectively. The inhibition (%) of HsAβ42 self-aggregation by the test compounds was calculated.

Data set [6] in a line: ABTS radical cation scavenging activity assay. The following applies: ethanol, 1 h.
The nature of data set [7]: Ferric reducing antioxidant power (FRAP) assay. Particulars: Trolox equivalents; acetate buffer pH 3.6, 1 h, 37 °C.
The subject of data set [8] is reprogrammed human neuronal cell cultures (MSC-Neu). Description: Cytotoxicity, MTT test, MSC-Neu. Particulars: read-out: Cytotoxic activity, LC50, MSC-Neu, 24 h, 1 to 1024 μM, mean ± SE, n = 3. The method, then: (§5) Cytotoxic activity was assessed using the MTT test. […] For each compound, the half-lethal concentration parameter LC50 (μM) was calculated.
(§6) This study employed SH-SY5Y neuroblastoma cells and dental pulp-derived mesenchymal stem cells (MSC-DP). Cells were cultured in DMEM/F12 with 10% (v/v) FBS under standard conditions. MSC-DP were reprogrammed into neuronal-like cells (MSC-Neu) using Neurobasal medium with addition of Neuromax and 3% (v/v) FBS for 5 days.
(§7) The cytotoxic effect of Fcs was assessed using the Mossman test for cellular dehydrogenase activity (MTT test). […] For each compound, the half-lethal concentration parameter (LC50) in μM was calculated as described previously.
(Formazan colour is commonly taken as a measure of viable cells.)

For data set [9], the system named is human neuroblastoma cell cultures (SH-SY5Y). Kind of data set: Cytotoxicity, MTT test, SH-SY5Y. The following applies: read-out: Cytotoxic activity, LC50, SH-SY5Y, 24 h, 1 to 1024 μM, mean ± SE, n = 3. As to the method:
as §5, §6, §7

For data set [10] the following is noted: cited from earlier work.
A further data set relates to MCF7 cell line. The following applies: Figure 12; read-out: LC50, MCF7 cell line; cited from earlier work.

T3 sequence (P22303 32-617 isoform P22303-2 limits assumed): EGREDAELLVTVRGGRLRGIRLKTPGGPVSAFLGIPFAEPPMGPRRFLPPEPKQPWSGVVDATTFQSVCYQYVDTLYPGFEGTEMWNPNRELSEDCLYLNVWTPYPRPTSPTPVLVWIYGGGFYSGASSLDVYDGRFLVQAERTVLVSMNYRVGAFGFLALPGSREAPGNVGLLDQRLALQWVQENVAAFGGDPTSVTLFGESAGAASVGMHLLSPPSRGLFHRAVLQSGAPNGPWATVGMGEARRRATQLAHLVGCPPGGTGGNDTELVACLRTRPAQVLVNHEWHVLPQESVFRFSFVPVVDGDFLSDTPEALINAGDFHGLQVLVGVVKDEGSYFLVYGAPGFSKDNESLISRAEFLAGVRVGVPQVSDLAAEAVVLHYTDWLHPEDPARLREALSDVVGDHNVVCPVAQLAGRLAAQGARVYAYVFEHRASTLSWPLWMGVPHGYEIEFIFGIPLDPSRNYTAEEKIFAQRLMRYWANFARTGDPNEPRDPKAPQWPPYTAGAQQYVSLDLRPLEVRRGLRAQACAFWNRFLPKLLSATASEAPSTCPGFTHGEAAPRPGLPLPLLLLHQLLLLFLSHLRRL
T4 sequence (P81908 whole entry): as the sequence (P81908 whole entry) above
T5 sequence (O42275 24-633): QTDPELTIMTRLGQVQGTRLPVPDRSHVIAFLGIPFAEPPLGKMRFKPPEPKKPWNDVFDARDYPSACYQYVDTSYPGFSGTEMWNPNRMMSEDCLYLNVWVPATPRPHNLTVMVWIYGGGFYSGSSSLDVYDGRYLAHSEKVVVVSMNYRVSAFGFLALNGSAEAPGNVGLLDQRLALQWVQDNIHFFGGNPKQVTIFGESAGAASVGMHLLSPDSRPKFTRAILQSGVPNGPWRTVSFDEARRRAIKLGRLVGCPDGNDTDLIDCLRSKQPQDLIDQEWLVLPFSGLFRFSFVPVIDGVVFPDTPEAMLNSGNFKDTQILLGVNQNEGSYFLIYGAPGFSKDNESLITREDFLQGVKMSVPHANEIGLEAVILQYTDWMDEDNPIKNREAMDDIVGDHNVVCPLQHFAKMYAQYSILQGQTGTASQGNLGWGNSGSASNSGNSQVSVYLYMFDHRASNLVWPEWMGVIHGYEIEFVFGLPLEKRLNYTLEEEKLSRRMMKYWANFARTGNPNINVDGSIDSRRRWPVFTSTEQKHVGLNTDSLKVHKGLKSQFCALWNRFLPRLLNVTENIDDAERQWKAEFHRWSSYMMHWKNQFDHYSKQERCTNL
T1 sequence (P22303 32-617 isoform P22303-2 limits assumed): as the sequence (P22303 32-617 isoform P22303-2 limits assumed) above

As for `C=C[c-]1cccc1.[Fe+2].c1ccc2nc(-[c-]3cccc3)ccc2c1` [7b, 1-(Quinolin-2-yl)-1′-Vinylferrocene], the IC50 in [1] is 3.32 ± 0.23 µM; in data set [2], 3.68 ± 0.29 µM; in data set [6] (ABTS^•+ 100 μM) it was 5.3 ± 0.2 µM. Also, in [3], the “Inhibition of SsCES, % inhibition at 20 μM” value is 29.8 ± 2.6%. For the same compound, at HsAChE, the “noncompetitive component of inhibition constant (αKi), HsAChE” value was 3.05 ± 0.18 µM. Moreover, on HsAChE (Vmax and Km both change), the “type of inhibition, HsAChE” value is given as “mixed type of inhibition”. Also, the Ki on HsAChE (read-out: competitive component of inhibition constant (Ki), HsAChE) amounted to 1.92 ± 0.13 µM; on EcBChE (read-out: competitive component of inhibition constant (Ki), EcBChE), 2.77 ± 0.22 µM. Besides, the “noncompetitive component of inhibition constant (αKi), EcBChE” value at EcBChE is recorded as 4.58 ± 0.27 µM. Further, at EcBChE (Vmax and Km both change), the “type of inhibition, EcBChE” value is on record as “mixed type of inhibition”. In data set [4], the “Propidium Displacement, (%)” value was 7.7 ± 0.6%. Moreover, the “HsAβ42 self-Aggregation Inhibition, (%)” value in data set [5] came to 89.6 ± 6.2%. Besides, the “ABTS^•+-Scavenging Activity, TEAC” value in data set [6] (Trolox equivalent antioxidant capacity, mean ± SEM, n = 3) came to 4.4 ± 0.2. Besides, the “Ferric Reducing Antioxidant Power, TE” value in [7] is 2.21 ± 0.02. The values for the CC50 in data set [8] and in [9] were 277 ± 14.8 µM and 287 ± 31.7 µM, respectively.
As to `c1ccc(-c2ccccn2)nc1` [Bipyridine], the “Experimental pKa” value in [10] is 4.35.
Turning to `CCC(=C(c1ccc(O)cc1)c1ccc(O)cc1)[c-]1cccc1.[Fe+2].c1cc[cH-]c1` [Ferrocifenol], the CC50 with MCF7 cell line was 0.9 µM.
Take `CC(=C(c1ccc(O)cc1)c1ccc(O)cc1)[c-]1cccc1.[Fe+2].c1cc[cH-]c1` [compound 10, 1,1-bis(4-hydroxyphenyl)-2-ferrocenylprop-1-ene, reference compound]: the CC50 in [8] is 104 ± 12.3 µM; in data set [9] it was 43.4 ± 6.7 µM; in the data set on MCF7 cell line, 18.1 ± 2.1 µM.
On to `CC(=C(c1ccc(O)cc1)c1ccc(O)cc1)[c-]1cccc1.[Fe+2].c1ccc2nc(-[c-]3cccc3)ccc2c1` [compound 11, 1-(quinolin-2-yl)-1’-{1-[bis(4-hydroxyphenyl)methylene]ethyl}ferrocene, reference compound], for which the CC50 in data set [8] was 139 ± 15.7 µM; in data set [9] it was 57.8 ± 8.2 µM; with MCF7 cell line, 50.9 ± 3.65 µM.
